Key:
[1] = tested on: 3CLpro of NV, MD145, MNV-1; assay type: biochemical, norovirus; conditions: optimized FRET-based protease assay
[2] = target: HAV 3Cpro (Human hepatitis A virus genotype IB, UniProt P08617); assay: Optimized FRET protease assay, HAV 3Cpro (Example 3); assay type: biochemical
Method: Fluorogenic substrates with Edans and Dabcyl as a donor and quencher pair were purchased from Bachem (coronavirus substrate) or synthesized by GenScript. The viral proteases and the corresponding fluorogenic substrates are listed in Table 5, along with their sources.
Stock solutions (10 mM) of the substrates and the compounds were prepared in dimethyl sulfoxide (DMSO) and diluted in assay buffer. The assay buffer comprised 20 mM HEPES buffer containing NaCl (0 mM for HAV 3Cpro and 200 mM for all other proteases), 0.4 mM EDTA, Glycerol (60% for NV and MD145 3CLpro and 30% for TGEV and 229E 3CLpro), and 6 mM (NV and MD145 3CLpro and HAV 3Cpro)_or 4 mM (all other proteases) dithiothreitol (DTT) at pH 6 (coronavirus 3CLpro) or 8 (all other proteases). Each protease was mixed with serial dilutions of each compound or with DMSO in 25 μl of assay buffer and incubated at 37° C. for 30 min, followed by the addition of 25 μl of assay buffer containing substrate. Fluorescence readings were obtained using an excitation wavelength of 360 nm and an emission wavelength of 460 nm on a fluorescence microplate reader (FLx800; Biotek, Winooski, Vt.) at 1 h following the addition of substrate. The relative fluorescence units (RFU) were determined by subtracting background values (substrate-containing well without protease) from the raw fluorescence values. […]

[3] = target: NV 3CLpro (codon-optimized, full-length, N-terminal 6 His, recombinant) (Norovirus, UniProt Q83883); assay type: biochemical, Norwalk virus (human norovirus GI)
[4] = target: MNV-1 3CLpro (codon-optimized, full-length, recombinant) (Norovirus, UniProt Q80J95); assay: biochemical; parameters: species or system murine norovirus-1 (GV)
[5] = tested on: HG23 cells; conditions: human

HAV 3Cpro, sequence (P08617 1520-1738): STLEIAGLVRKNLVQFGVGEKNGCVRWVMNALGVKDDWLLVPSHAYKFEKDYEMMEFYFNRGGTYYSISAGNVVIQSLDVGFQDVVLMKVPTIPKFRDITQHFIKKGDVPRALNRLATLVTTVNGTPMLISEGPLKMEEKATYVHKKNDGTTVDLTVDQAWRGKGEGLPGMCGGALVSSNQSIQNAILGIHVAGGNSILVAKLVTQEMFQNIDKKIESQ
NV 3CLpro (codon-optimized, full-length, N-terminal 6 His, recombinant), sequence (Q83883 1101-1281): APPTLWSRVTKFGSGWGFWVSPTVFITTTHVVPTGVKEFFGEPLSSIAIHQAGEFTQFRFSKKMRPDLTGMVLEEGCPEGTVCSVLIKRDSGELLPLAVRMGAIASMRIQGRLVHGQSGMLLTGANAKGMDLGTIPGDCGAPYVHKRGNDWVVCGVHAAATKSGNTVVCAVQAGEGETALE
MNV-1 3CLpro (codon-optimized, full-length, recombinant), sequence (Q80J95 995-1177): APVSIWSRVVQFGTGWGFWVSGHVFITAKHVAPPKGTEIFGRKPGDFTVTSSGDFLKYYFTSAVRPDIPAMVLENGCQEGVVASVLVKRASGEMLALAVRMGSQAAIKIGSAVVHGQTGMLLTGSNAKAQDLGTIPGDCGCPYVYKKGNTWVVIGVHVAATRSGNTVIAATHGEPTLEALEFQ

## CC(C)C[C@H](NC(=O)OCc1ccccc1)C(=O)N[C@H](C=O)C[C@@H]1CCNC1=O [GC373]
[1]
  effect on the activity of 3CLpro of NV, MD145, MNV-1 (in words): highly effective
[2]
  inhibitory effect on HAV 3Cpro (in words): all viral proteases except HAV 3Cpro
[3]
  IC50: 0.64 µM
[4]
  IC50: 1.34 µM
[5]
  TD50, median toxic dose: > 320 µM

Reference: patent publication US9474759B2 (priority 2011, dated 2016)
